Values of other authors, collected in patent publication US8481600B2, “Formulation of aspirin that is stable and showing minimal hydrolysis for parenteral administration for the treatment of cardiovascular and other disease states” (Academic Pharmaceuticals, Inc., priority 2007, dated 2013).

What was measured:
[1] = cited from earlier work
[2] = cited from earlier work; remark: listed apart in the source
[3] = cited from earlier work; remark: listed apart in the source

CC(=O)Oc1ccccc1C(=O)O [Lysine acetylsalicylate]
shortest half life after IV administration ([1]; IV): 7.5 min
metabolism and hydrolysis to salicylic acid ([1]; in vivo): rapid
treatment of acute migraine headaches ([2]; human, in vivo): effective
incidence of sensitivity that can lead to anaphylactic shock ([2]; patients): up to 5%
water solubility [3]: readily water soluble
